Experimental data as given in patent US20100004234A1, “SPECIFIC KINASE INHIBITORS” (Kosan Biosciences Incorporated, priority 2004, published 2010).
Read-outs that look alike come from different tables or passages of the source.

Assays:
[1] = test system: p70S6K(h); assay: Kinase panel, residual activity; assay type: biochemical, human; conditions: 0.2 μM
Description: In this panel of 124 kinases, 18 of the 19 kinases identified as having an active site cysteine were inhibited to some extent by hypothemycin at a concentration of 0.2 μM and/or 2 μM.

[2] = test system: HT29 (Human colon, B-Raf V599E); assay: Cell proliferation assay (Cell Titer Glo); assay type: cell-based
Description: (§1) In one illustrative method, cells are treated with various concentrations of the inhibitor in 96 well plates, incubated at 37° C./5% CO2 for three days, and analyzed using the Cell Titer Glo kit (Promega).
(§2) COLO829 is a human melanoma cell line. HT29 is a human colon cancer cell line. Both cell lines have a V600E B-Raf mutation. SKOV3 is an ovarian cancer cell line having wild-type B-Raf. EKR2 (extra-cellular signal regulated kinase 2) is a kinase in the Ras/B-Raf MAP kinase cascade pathway.

[3] = test system: COLO829 (Human melanoma, B-Raf V599E); assay: Cell proliferation assay (Cell Titer Glo); assay type: cell-based
Description: as §1, §2

[4] = target: TrkB (Homo sapiens, UniProt Q16620); assay: Time-dependent kinase inhibition kinetics (progress curve); assay type: biochemical
Description: (§3) Typically, one measures the increase in inhibition of protein kinase activity in the presence of inhibitor over time. In one method, aliquots of a “pre-incubation” reaction mixture containing enzyme and inhibitor are assayed for activity (initial velocities) over time; increased inhibition or decreased initial velocities will be observed over time as the Michael adduct forms (Walsh, C, Enzyme Reaction Mechanisms, W.H. Freeman & Co., 1979, pp 86-94). In a second method, the time dependent loss of activity is measured as “progress curves” that measure and analyze product formed (e.g. ADP) versus time (Morrison & Walsh, Adv. Enzymol Relat Areas Mol. Biol. 1988, 61, 201-301). In either case, the time dependent inactivation can be dampened by the presence of a competing substrate, in this case ATP.
(§4) For covalent inhibitors, plots of log (activity) versus time provide apparent first-order rate constants (kobsd) of enzyme activity loss. If these assays are performed at varying concentrations of inhibitor, a series of first-order plots is obtained and kobsd obtained at each inhibitor concentration. To measure time-dependent inhibition using the “progress-curve method” (see references cited above and Kuzmic et al., Methods Enzymol 2004; 383: 366-81), ERK (or other kinase) is treated with varying amounts of the lactone inhibitor, and the formation of ADP is measured continuously by a coupled assay. […] Such molecules may be competitive inhibitors but should not show time-dependent inactivation.
(§5) Those of skill in the art will recognize that within the set of compounds useful in the methods of the invention, significant variability in specificity can be achieved, allowing one to identify optimal compounds for different applications. Inhibition progress curve analysis was performed using continuous, colorimetric, or fluorimetric assays. All experiments were done at 1 mM ATP, with the exception of KDR (at 5 mM ATP).
(§6) MEK1 assays were performed using pre-incubation experiments with radioactive [^32P]ATP and filter binding of product. All other kinases were analyzed using progress curve analysis from a continuous spectrophotometric assay.

[5] = target: KDR (VEGFR2) (Homo sapiens, UniProt P35968); assay: as above; assay type: biochemical
Description: as §3, §4, §5, §6

[6] = target: PDGFRα (Homo sapiens, UniProt P16234); assay: as above; assay type: biochemical
Description: as §3, §4, §5, §6

[7] = target: Flt-1 (VEGFR1) (Homo sapiens, UniProt P17948); assay: as above; assay type: biochemical
Description: as §3, §4, §5, §6

[8] = target: ERK2 (UniProt P28482); assay type: biochemical; design: Ki; other: ERK2; 1 mM ATP; kinact; T1/2; kinact/Ki; "the target Cys 172 residue; conditions: ERK2
Description: In either case, the time dependent inactivation can be dampened by the presence of a competing substrate, in this case ATP.
For covalent inhibitors, plots of log (activity) versus time provide apparent first-order rate constants (kobsd) of enzyme activity loss. If these assays are performed at varying concentrations of inhibitor, a series of first-order plots is obtained and kobsd obtained at each inhibitor concentration. […] Such molecules may be competitive inhibitors but should not show time-dependent inactivation.
Inhibition progress curve analysis was performed using continuous, colorimetric, or fluorimetric assays. All experiments were done at 1 mM ATP, with the exception of KDR (at 5 mM ATP).
as §6

[9] = test system: ERK1/2 activation in human T cells; conditions: tested at 0.3 to 3 μM; cited from earlier work

PDGFRα, sequence (P16234 24-1089): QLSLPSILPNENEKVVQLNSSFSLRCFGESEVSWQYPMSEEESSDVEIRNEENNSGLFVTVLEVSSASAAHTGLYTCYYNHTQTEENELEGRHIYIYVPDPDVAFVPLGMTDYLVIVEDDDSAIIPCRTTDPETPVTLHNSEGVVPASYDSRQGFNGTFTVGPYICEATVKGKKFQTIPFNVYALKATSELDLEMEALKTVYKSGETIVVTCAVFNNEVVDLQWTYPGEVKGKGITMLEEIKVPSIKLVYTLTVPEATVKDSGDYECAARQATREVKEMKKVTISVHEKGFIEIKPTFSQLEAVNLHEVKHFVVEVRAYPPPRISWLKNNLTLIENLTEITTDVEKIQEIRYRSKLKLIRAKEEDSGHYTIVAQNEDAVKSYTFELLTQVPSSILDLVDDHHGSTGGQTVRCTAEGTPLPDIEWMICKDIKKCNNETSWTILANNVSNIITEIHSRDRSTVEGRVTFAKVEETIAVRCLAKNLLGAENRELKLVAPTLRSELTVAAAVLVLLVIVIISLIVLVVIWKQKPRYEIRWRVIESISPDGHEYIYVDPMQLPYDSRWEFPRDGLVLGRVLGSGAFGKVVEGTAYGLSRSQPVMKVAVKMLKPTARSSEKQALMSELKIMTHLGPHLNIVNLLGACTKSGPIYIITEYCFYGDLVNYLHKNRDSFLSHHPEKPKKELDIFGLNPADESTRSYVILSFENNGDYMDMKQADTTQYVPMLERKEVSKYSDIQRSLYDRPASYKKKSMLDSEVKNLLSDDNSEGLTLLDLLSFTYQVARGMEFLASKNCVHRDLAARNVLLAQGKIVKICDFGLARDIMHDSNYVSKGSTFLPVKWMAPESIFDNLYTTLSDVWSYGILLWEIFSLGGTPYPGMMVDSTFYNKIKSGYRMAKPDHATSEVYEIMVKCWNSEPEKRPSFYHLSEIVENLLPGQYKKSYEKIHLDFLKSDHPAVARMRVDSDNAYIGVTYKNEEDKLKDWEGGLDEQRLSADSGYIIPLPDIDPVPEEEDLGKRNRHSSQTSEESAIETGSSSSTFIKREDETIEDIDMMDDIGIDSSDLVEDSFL
TrkB, sequence (Q16620 32-822): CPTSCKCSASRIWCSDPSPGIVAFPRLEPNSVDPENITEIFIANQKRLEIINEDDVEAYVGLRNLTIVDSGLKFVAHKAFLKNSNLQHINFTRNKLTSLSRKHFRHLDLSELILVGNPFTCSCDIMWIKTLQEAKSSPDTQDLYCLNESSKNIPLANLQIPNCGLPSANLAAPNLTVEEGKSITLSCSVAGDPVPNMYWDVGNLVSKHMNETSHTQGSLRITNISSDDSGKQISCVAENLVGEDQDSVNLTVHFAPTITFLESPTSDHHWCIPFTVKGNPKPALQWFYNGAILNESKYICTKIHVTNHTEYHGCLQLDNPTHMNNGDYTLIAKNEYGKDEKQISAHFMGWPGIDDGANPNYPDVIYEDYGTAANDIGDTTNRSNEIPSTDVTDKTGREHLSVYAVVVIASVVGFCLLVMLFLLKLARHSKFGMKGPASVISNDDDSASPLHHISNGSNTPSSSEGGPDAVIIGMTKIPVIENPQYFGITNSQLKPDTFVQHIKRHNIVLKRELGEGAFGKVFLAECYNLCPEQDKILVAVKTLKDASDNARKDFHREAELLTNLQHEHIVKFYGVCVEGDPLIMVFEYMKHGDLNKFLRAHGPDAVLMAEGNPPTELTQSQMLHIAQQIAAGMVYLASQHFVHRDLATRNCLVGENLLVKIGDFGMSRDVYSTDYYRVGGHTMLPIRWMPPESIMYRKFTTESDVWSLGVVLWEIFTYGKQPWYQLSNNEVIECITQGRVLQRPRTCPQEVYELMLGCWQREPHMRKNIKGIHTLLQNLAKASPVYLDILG
Flt-1 (VEGFR1), sequence (P17948 27-1338): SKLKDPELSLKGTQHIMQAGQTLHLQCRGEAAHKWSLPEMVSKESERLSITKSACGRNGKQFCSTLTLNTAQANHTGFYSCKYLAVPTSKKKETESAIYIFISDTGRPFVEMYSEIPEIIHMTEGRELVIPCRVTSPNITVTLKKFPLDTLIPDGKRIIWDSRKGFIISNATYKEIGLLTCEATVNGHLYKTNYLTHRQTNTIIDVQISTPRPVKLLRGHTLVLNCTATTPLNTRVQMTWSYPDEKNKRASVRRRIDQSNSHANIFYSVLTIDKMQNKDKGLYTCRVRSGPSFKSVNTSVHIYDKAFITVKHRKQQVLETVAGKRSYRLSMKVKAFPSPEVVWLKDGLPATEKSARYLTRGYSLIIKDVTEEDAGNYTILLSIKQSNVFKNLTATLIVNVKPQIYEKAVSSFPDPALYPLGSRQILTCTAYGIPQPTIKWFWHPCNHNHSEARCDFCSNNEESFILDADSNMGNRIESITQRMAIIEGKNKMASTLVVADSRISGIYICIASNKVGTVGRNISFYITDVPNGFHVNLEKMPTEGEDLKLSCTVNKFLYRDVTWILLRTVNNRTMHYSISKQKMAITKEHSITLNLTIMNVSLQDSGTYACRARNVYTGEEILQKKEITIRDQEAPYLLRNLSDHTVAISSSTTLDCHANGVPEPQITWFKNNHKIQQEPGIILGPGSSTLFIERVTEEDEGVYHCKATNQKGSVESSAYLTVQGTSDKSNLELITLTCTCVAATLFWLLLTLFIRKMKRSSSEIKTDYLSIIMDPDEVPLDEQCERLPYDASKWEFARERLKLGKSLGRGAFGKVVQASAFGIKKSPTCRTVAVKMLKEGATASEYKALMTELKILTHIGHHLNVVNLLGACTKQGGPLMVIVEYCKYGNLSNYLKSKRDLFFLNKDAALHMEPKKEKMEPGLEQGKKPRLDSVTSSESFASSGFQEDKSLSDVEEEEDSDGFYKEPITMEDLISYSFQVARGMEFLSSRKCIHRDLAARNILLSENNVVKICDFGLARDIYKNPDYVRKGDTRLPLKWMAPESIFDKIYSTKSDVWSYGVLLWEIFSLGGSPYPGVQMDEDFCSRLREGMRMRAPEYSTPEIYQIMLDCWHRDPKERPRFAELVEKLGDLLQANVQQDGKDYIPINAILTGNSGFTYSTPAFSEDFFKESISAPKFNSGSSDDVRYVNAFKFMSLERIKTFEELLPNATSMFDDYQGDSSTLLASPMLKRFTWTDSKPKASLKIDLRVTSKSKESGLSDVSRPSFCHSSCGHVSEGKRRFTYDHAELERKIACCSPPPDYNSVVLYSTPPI
KDR (VEGFR2), sequence (P35968 20-1356): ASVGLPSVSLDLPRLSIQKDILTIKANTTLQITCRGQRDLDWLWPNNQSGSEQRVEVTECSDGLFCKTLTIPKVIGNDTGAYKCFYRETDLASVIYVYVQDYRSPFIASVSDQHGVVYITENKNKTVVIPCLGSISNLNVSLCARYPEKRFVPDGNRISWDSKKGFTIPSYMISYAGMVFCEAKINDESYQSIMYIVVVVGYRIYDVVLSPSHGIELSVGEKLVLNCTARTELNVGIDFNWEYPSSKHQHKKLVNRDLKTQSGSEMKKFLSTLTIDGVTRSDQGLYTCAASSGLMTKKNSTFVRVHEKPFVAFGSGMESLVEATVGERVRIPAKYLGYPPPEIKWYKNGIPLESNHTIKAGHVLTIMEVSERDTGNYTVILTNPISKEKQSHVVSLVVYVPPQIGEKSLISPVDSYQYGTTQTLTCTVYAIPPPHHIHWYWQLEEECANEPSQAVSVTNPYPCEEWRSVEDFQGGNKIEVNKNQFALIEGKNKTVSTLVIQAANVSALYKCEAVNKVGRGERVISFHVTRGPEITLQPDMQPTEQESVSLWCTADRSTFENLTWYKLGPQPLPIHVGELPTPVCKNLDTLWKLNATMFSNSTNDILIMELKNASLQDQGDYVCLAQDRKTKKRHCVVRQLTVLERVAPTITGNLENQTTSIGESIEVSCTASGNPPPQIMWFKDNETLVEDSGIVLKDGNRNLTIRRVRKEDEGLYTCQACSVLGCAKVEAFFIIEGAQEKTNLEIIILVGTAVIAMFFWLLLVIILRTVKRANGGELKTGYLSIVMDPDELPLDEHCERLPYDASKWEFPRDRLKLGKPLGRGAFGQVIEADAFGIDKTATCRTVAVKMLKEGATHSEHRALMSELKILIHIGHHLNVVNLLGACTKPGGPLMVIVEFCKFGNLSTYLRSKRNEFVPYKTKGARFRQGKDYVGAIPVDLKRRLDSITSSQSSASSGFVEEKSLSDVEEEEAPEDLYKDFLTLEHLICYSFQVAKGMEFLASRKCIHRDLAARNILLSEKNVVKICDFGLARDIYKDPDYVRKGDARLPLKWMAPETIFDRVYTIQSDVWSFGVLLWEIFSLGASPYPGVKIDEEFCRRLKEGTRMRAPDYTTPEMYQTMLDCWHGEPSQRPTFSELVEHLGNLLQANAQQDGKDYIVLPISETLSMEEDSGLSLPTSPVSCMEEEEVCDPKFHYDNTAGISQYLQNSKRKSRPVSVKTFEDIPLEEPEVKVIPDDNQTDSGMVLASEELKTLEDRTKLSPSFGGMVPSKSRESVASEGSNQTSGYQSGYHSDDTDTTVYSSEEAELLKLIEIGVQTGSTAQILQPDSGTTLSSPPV

For `COc1cc(O)c2c(c1)[C@H]1O[C@@H]1C[C@H](O)[C@H](O)C(=O)/C=C\C[C@H](C)OC2=O` [Hypothemycin, hypothemycin], which Percent residual activity [1] is on record?
The Percent residual activity was 94%.

And the IC50 ([2]; HT-29, Table 7, HT29 human colon cancer, V600E B-Raf, read-out: Cell Line IC50 HT29)?
Its IC50 is 240 ± 170 nM.

And the IC50 ([2]; Homo sapiens, HT-29, read-out: Kinase Inhibitor IC50)?
The IC50 was 100 nM.

What about the IC50 ([3]; COLO-829, Table 7, COLO829 human melanoma, V600E B-Raf, read-out: Cell Line IC50 COLO829) of the same molecule?
Its IC50 is 73 ± 17 nM.

And the GI50 ([3]; Homo sapiens, COLO-829)?
Its GI50 is 50 nM.

And the IC50 ([3]; Homo sapiens, COLO-829, read-out: Kinase Inhibitor IC50)?
The IC50 was 89 nM.

And the Ki ([4]; TRKB, reversible inhibition competitive with ATP)?
Its Ki is 370 nM.

What about the kinact/Ki ([4]; TrkB) of the same molecule?
Its kinact/Ki is “None”.

What about the “time-dependent inactivation (covalent bond formation)” value ([4]; TrkB) of the same molecule?
The value was “did not show time-dependent inactivation”.

What about the kinact ([4]; TrkB, 1 mM ATP) of the same molecule?
Its kinact is “None”.

What about the Ki ([5]; KDR) of the same molecule?
Its Ki is 10 nM.

And the kinact/KI ([5]; KDR)?
Its kinact/KI is 500000 M⁻¹ s⁻¹.

What about the kinact/Ki ([5]; KDR (VEGFR2)) of the same molecule?
The kinact/Ki was 500000 M⁻¹ s⁻¹.

And the Ki ([5]; KDR (VEGFR2), 5 mM ATP)?
The Ki was 14 nM.

What about the kinact ([5]; KDR (VEGFR2), 5 mM ATP) of the same molecule?
Its kinact is 0.007 s⁻¹.

And the KDR activity inhibited ([5]; calculated for 0.1 μM for ~10 minutes)?
The KDR activity inhibited was greater than 98%.

What about the kinact/KI [6] of the same molecule?
Its kinact/KI is 1300 M⁻¹ s⁻¹.

What about the Ki ([6]; 1 mM ATP) of the same molecule?
Its Ki is 1500 nM.

And the kinact ([6]; 1 mM ATP)?
Its kinact is 0.002 s⁻¹.

And the kinact/KI [7]?
Its kinact/KI is 160000 M⁻¹ s⁻¹.

What about the kinact ([7]; 1 mM ATP) of the same molecule?
Its kinact is 0.018 s⁻¹.

What about the Ki ([7]; 1 mM ATP, significant decrease of enzyme activity over time without inhibitor) of the same molecule?
Its Ki is 110 nM.

What about the kinact/Ki [8] of the same molecule?
Its kinact/Ki is 1900 M⁻¹ s⁻¹.

And the Ki ([8]; 1 mM ATP)?
The Ki was 2700 nM.

What about the kinact ([8]; 1 mM ATP) of the same molecule?
Its kinact is 0.005 s⁻¹.

What about the “inhibition of the activation of ERK1/2” value [9] of the same molecule?
Its value is “inhibit”.
